Here are results for 24 compounds from patent publication US10508109B2 (priority 2015, dated 2019).

The test system of test [1] is A549. Description: Cell-based assay, anti-proliferative activity (Cell Counting Kit-8, 72 hours). As to conditions: Homo sapiens, read-out: A549 IC50. An outline of the steps:
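After compound exposure of cells in 96-well plates, growth was measured colorimetrically and converted into IC50 values.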

The target of test [2] is SUV39H2 (Homo sapiens (Human), UniProt Q9H5I1). The experiment in a line: biochemical. Type of test: biochemical. As to conditions: 3H-SAM 100 nM, H3 Histone Peptide 350 nM, room temperature 3 hours. Here is the method:
Assay buffer (4 μL) was added into all the wells, including test compound and control wells (except for Sinefungin control wells), using the Multidrop Combi. The plate was centrifuged at 1000 rpm for 1 min. […] SUV39H2 (8 μL, final conc: optimized for each lot of the enzyme based on specific activity) was added by using the Multidrop Combi. The assay plate was centrifuged at 1000 rpm for 1 min. Assay buffer was used as background control, and incubated at room temperature for 3 hours. The reaction was stopped with 20 μL of 2.5 mg/mL Streptavidin SPA beads (final conc. 50 μg/well) in buffer using the Multidrop Combi and centrifuged for 1 min. The plate was loaded into the Trilux-Microbeta counter and a delayed read of 10 hours was made. The radioactive signal was measured at 1 min/well. Sinefungin and the internal standard compound were used as tool compounds to determine assay performance.
• The following calculations were made using the obtained CPM raw data: Software used: XLFit from IDBS.
For each test plate the following results were calculated: • Average, Standard Deviation, and % CV of Background Controls • Average, Standard Deviation, and % CV of Positive Controls • Z′ value of the plate • IC50 values of standard and test compounds (in nM) • R^2 value of fitted concentration response curve • Hill slope coefficient of fitted concentration response curve • Signal to Noise Ratio

The mark [3] stands for this setting: A549 cells, 72 hours exposure, Cell Counting Kit-8.

The structures appear in SMILES notation. Counter-ions that a name gives are not always drawn. Like-named read-outs stand apart in the source and are kept apart here.

Sequence of SUV39H2 (Q9H5I1 whole entry): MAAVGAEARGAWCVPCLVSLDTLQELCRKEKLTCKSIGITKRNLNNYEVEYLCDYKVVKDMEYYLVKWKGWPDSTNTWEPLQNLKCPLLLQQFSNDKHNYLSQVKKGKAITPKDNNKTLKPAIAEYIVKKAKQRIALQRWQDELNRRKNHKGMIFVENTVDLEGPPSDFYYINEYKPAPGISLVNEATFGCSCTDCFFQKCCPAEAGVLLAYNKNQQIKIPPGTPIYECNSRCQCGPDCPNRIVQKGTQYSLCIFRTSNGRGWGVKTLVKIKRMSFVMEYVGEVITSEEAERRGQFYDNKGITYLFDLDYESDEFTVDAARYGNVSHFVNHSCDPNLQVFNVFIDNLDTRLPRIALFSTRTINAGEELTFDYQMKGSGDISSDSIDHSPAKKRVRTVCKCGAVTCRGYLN

Regarding `COc1cc(OC)c(-c2cn3ccc(N4CCN(C(=O)c5ccccc5O)CC4)cc3n2)cc1Cl` [Example 314, (4-(2-(5-chloro-2,4-dimethoxyphenyl)imidazo[1,2-a]pyridin-7-yl)piperazin-1-yl)(2-hydroxyphenyl)methanone], the IC50 in test [1] (setting [3]) was 1.7 µM; in test [2], 0.00729 µM.

In the case of `COc1cc(OC)c(-c2cn3ccc(N4CCN(c5ccnc(N6CCC(N)C6)n5)CC4)cc3n2)cc1Cl` (stereo not drawn) [Example 354, 1-(4-(4-(2-(5-chloro-2,4-dimethoxyphenyl)imidazo[1,2-a]pyridin-7-yl)piperazin-1-yl)pyrimidin-2-yl)pyrrolidin-3-amine], the IC50 came to 0.49 µM in test [1] (setting [3]) and 0.0129 µM in test [2].

Regarding `COc1cc(OC)c(-c2cn3ccc(N4CCN(c5cc(N6CCCCC6)ncn5)CC4)cc3n2)cc1Cl` [Example 353, 2-(5-chloro-2,4-dimethoxyphenyl)-7-(4-(6-(piperidin-1-yl)pyrimidin-4-yl)piperazin-1-yl)imidazo[1,2-a]pyridine], the IC50 in test [1] (setting [3]) came out at 0.78 µM; in test [2] it was 0.0419 µM.

For the compound `COc1cc(OC)c(-c2cn3ccc(N4CC[C@H](NC(=O)c5ccccn5)C4)cc3n2)cc1Cl` [Example 404, (S)—N-(1-(2-(5-chloro-2,4-dimethoxyphenyl)imidazo[1,2-a]pyridin-7-yl)pyrrolidin-3-yl)picolinamide], the concentration for half-maximal inhibition (IC50) in test [1] (setting [3]) stood at 1.5 µM; in test [2], 0.00403 µM.

For `COc1cc(OC)c(-c2cn3ccc(N[C@H]4C[C@H]5CC[C@@H](C4)N5Cc4ccncc4)cc3n2)cc1Cl` [Example 448, 2-(5-chloro-2,4-dimethoxyphenyl)-N-((1R,3r,5S)-8-(pyridin-4-ylmethyl)-8-azabicyclo[3.2.1]octan-3-yl)imidazo[1,2-a]pyridin-7-amine], the values for the IC50 in test [1] (setting [3]) and in test [2] were 0.34 µM and 0.0226 µM, respectively.

As for `COc1cc(OC)c(-c2cn3ccc(N4CCN(c5nc(N)nc(N(C)C)n5)CC4)cc3n2)cc1Cl` [Example 440, 6-(4-(2-(5-chloro-2,4-dimethoxyphenyl)imidazo[1,2-a]pyridin-7-yl)piperazin-1-yl)-N^2,N^2-dimethyl-1,3,5-triazine-2,4-diamine], the half-maximal inhibitory concentration (IC50) in test [1] (setting [3]) is 0.62 µM; in test [2] it was 0.0358 µM.

`COc1cc(OC)c(-c2cn3ccc(N4CC[C@H](NC(C)C5CCCCC5)C4)cc3n2)cc1Cl` (stereo partly drawn) [Example 416, (3S)-1-(2-(5-chloro-2,4-dimethoxyphenyl)imidazo[1,2-a]pyridin-7-yl)-N-(1-cyclohexylethyl)pyrrolidin-3-amine]: the half-maximal inhibitory concentration (IC50) in test [1] (setting [3]) worked out at 0.67 µM; in test [2] it was 0.0476 µM.

For `COc1cc(OC)c(-c2cn3ccc(N4CCC(C(=O)Nc5ccccc5)CC4)cc3n2)cc1Cl` [Example 456, 1-(2-(5-chloro-2,4-dimethoxyphenyl)imidazo[1,2-a]pyridin-7-yl)-N-phenylpiperidine-4-carboxamide], the results for the half-maximal inhibitory concentration (IC50) in test [1] (setting [3]) and in test [2] were 0.63 µM and 0.0255 µM, respectively.

For the compound `COc1cc(OC)c(-c2cn3ccc(N[C@H]4CC[C@@H](NCc5cccc(F)c5)CC4)cc3n2)cc1Cl` [Example 402, cis-N^1-(2-(5-chloro-2,4-dimethoxyphenyl)imidazo[1,2-a]pyridin-7-yl)-N^4-(3-fluorobenzyl)cyclohexane-1,4-diamine bis(2,2,2-trifluoroacetate)], the half-maximal inhibitory concentration (IC50) in test [1] (setting [3]) was 0.74 µM; in test [2], 0.0187 µM.

Take `COc1cc(OC)c(-c2cn3ccc(N4CC[C@H](NCc5ccnc(F)c5)C4)cc3n2)cc1Cl` [Example 412, (S)-1-(2-(5-chloro-2,4-dimethoxyphenyl)imidazo[1,2-a]pyridin-7-yl)-N-((2-fluoropyridin-4-yl)methyl)pyrrolidin-3-amine dihydrochloride]: the IC50 in test [1] (A549, 72 h) is 0.85 µM; in test [2], 0.00683 µM.

As to `COc1cc(OC)c(-c2cn3ccc(N4CCC(C(=O)NC5CCN(C(=O)OC(C)(C)C)CC5)CC4)cc3n2)cc1Cl` [Example 460, tert-butyl 4-(1-(2-(5-chloro-2,4-dimethoxyphenyl)imidazo[1,2-a]pyridin-7-yl)piperidine-4-carboxamido)piperidine-1-carboxylate], the IC50 is 0.69 µM in test [1] (setting [3]) and 0.0207 µM in test [2].

`COc1cc(OC)c(-c2cn3ccc(N4CCN(c5ccnc(N6CCN(C)CC6)n5)CC4)cc3n2)cc1Cl` [Example 351, 2-(5-chloro-2,4-dimethoxyphenyl)-7-(4-(2-(4-methylpiperazin-1-yl)pyrimidin-4-yl)piperazin-1-yl)imidazo[1,2-a]pyridine]: the IC50 was 0.86 µM in test [1] (setting [3]) and 0.0286 µM in test [2].

With `COc1cc(OC)c(-c2cn3ccc(NC4CCN(Cc5ccc([N+](=O)[O-])o5)CC4)cc3n2)cc1Cl` [Example 343, 2-(5-chloro-2,4-dimethoxyphenyl)-N-(1-((5-nitrofuran-2-yl)methyl)piperidin-4-yl)imidazo[1,2-a]pyridin-7-amine], the IC50 in test [1] (setting [3]) was determined as 0.91 µM; in test [2], 0.0479 µM.

Consider `COc1cc(OC)c(-c2cn3ccc(N4CCN(c5ccnc(N6CCNCC6)n5)CC4)cc3n2)cc1Cl` [Example 341, 2-(5-chloro-2,4-dimethoxyphenyl)-7-(4-(2-(piperazin-1-yl)pyrimidin-4-yl)piperazin-1-yl)imidazo[1,2-a]pyridine], for which the half-maximal inhibitory concentration (IC50) was 0.74 µM in test [1] (A549, 72 h) and 0.0234 µM in test [2].

Consider `COc1cc(OC)c(-c2cn3ccc(N4CCN(c5ncc(N6CCOCC6)cn5)CC4)cc3n2)cc1Cl` [Example 427, 4-(2-(4-(2-(5-chloro-2,4-dimethoxyphenyl)imidazo[1,2-a]pyridin-7-yl)piperazin-1-yl)pyrimidin-5-yl)morpholine], for which the 50% inhibitory concentration (IC50) in test [1] (setting [3]) stood at 0.82 µM; in test [2] it was 0.0251 µM.

In the case of `COc1ccc(N2CCN(c3ccn4cc(-c5cc(Cl)c(OC)cc5OC)nc4c3)CC2)nc1` [Example 321, 2-(5-chloro-2,4-dimethoxyphenyl)-7-(4-(5-methoxypyridin-2-yl)piperazin-1-yl)imidazo[1,2-a]pyridine], the figures for the IC50 in test [1] (setting [3]) and in test [2] were 0.87 µM and 0.0874 µM, respectively.

For `COc1cc(OC)c(-c2cn3ccc(N4CCN(c5ccnc(N6CCCC(O)C6)n5)CC4)cc3n2)cc1Cl` (stereo not drawn) [Example 357, 1-(4-(4-(2-(5-chloro-2,4-dimethoxyphenyl)imidazo[1,2-a]pyridin-7-yl)piperazin-1-yl)pyrimidin-2-yl)piperidin-3-ol], the 50% inhibitory concentration (IC50) turned out to be 0.6 µM in test [1] (setting [3]) and 0.0258 µM in test [2].

With `COc1cc(OC)c(-c2cn3ccc(N[C@H]4CC[C@H](NCc5ccc(C)cc5)CC4)cc3n2)cc1Cl` [Example 328, (1r,4r)-N^1-(2-(5-chloro-2,4-dimethoxyphenyl)imidazo[1,2-a]pyridin-7-yl)-N^4-(4-methylbenzyl)cyclohexane-1,4-diamine (2,2,2-trifluoroacetate)], the IC50 stood at 0.36 µM in test [1] (setting [3]) and 0.0605 µM in test [2].

For the compound `CNc1ncc(N2CCN(c3ccn4cc(-c5cc(Cl)c(OC)cc5OC)nc4c3)CC2)cn1` [Example 340, 5-(4-(2-(5-chloro-2,4-dimethoxyphenyl)imidazo[1,2-a]pyridin-7-yl)piperazin-1-yl)-N-methylpyrimidin-2-amine trifluoroacetate], the IC50 in test [1] (setting [3]) was 0.69 µM; in test [2] it was 0.0171 µM.

As for `COCC(=O)N1CCN(c2ccn3cc(-c4cc(Cl)c(OC)cc4OC)nc3c2)CC1C` (stereo not drawn) [Example 310, 1-(4-(2-(5-chloro-2,4-dimethoxyphenyl)imidazo[1,2-a]pyridin-7-yl)-2-methylpiperazin-1-yl)-2-methoxyethanone], the figures for the IC50 in test [1] (setting [3]) and in test [2] were 10 µM and 0.00178 µM, respectively.

With `COc1cc(OC)c(-c2cn3ccc(N[C@H]4CC[C@H](Nc5nccc(N6CCN(C)CC6)n5)CC4)cc3n2)cc1Cl` [Example 398, (1r,4r)-N^1-(2-(5-chloro-2,4-dimethoxyphenyl)imidazo[1,2-a]pyridin-7-yl)-N^4-(4-(4-methylpiperazin-1-yl)pyrimidin-2-yl)cyclohexane-1,4-diamine], the values for the 50% inhibitory concentration (IC50) in test [1] (setting [3]) and in test [2] were 0.44 µM and 0.0233 µM, respectively.

Regarding `COc1cc(OC)c(-c2cn3ccc(N4CCCN(Cc5ccncc5)CC4)cc3n2)cc1Cl` [Example 388, 2-(5-chloro-2,4-dimethoxyphenyl)-7-(4-(pyridin-4-ylmethyl)-1,4-diazepan-1-yl)imidazo[1,2-a]pyridine dihydrochloride], the IC50 in test [1] (A549, 72 h) is 0.56 µM; in test [2], 0.00505 µM.

As to `COc1cc(OC)c(-c2cn3ccc(N4CCN(c5ncc(N6CCC(N)CC6)cn5)CC4)cc3n2)cc1Cl` [Example 441, 1-(2-(4-(2-(5-chloro-2,4-dimethoxyphenyl)imidazo[1,2-a]pyridin-7-yl)piperazin-1-yl)pyrimidin-5-yl)piperidin-4-amine], the values for the IC50 in test [1] (setting [3]) and in test [2] were 0.54 µM and 0.00499 µM, respectively.

Consider `COc1cc(OC)c(-c2cn3ccc(N4CCN(Cc5ncccn5)CC4)cc3n2)cc1Cl` [Example 352, 2-(5-chloro-2,4-dimethoxyphenyl)-7-(4-(pyrimidin-2-ylmethyl)piperazin-1-yl)imidazo[1,2-a]pyridine], for which the results for the half-maximal inhibitory concentration (IC50) in test [1] (setting [3]) and in test [2] were 10 µM and 0.00925 µM, respectively.
